According to patent US12570612B2, “Substituted nitrogen heterocyclic compound and anesthetic effect thereof” (priority 2019, dated 2026):
Entries after “also recorded” stand apart in the source; their conditions may differ. Read-outs that look alike come from different tables or passages of the source.

Legend:
[1] = tested on: Sprague-Dawley rats; assay: animal or person; conditions: for Approximate therapeutic index / Minimal lethal dose: rats
Experimental: (§1) Adult male Sprague-Dawley rats (250-300 g) were selected for the experiment. […] The anesthesia effects of the compounds were assessed in rats using a LORR assay and a period >30 s was considered as an indicator of general anesthesia.

[2] = tested on: Sprague-Dawley rats; assay: Pharmacological characteristics at equivalent doses (2ED50), Group A compounds; format: in vivo; parameters: Sedation duration: unit not given here; conditions: 2ED50, tail vein; for Types and incidence of adverse reactions: (animals affected/animals)
[3] = tested on: H295R cell line; assay: Adrenocortical function in vitro test: secretion of cortisol and corticosterone, Group A compounds; format: cell-based; conditions: H295 cells; for EC50: 0.1-10000 nM, HPLC-MS/MS
[4] = tested on: Sprague-Dawley rats; conditions: for Recovery time after stopping infusion: LORR maintained for 1 hour; for Recovery time after stopping infusion / Onset time: 2 times the MIR; for Onset time / Types and incidence of adverse reactions: continuous infusion; for Types and incidence of adverse reactions: (animals affected/animals)
Experimental: Adult male Sprague-Dawley rats with body weight ranging from 250 to 300 gm were selected for continuous infusion test. […] Time to recovery of righting reflex from stopping infusion, and time to fully awake from stopping infusion were recorded.

[5] = tested on: Sprague-Dawley rats; assay: animal or person; conditions: for ED50: LORR in rats, tail vein, brackets = 95% confidence limit; for Approximate therapeutic index / Minimal lethal dose: rats
Experimental: as §1

[6] = tested on: H295R cell line; assay: Adrenocortical function in vitro test: secretion of cortisol and corticosterone, Group B compounds; format: cell-based; conditions: H295R cells; for EC50: 0.1-10000 nM, HPLC-MS/MS
[7] = tested on: Sprague-Dawley rats; assay: Continuous infusion at 2 times the MIR for 1 hour, Group B compounds; format: in vivo; conditions: for Recovery time after stopping infusion: after 1 hour continuous infusion at 2 times the MIR; for Recovery time after stopping infusion / Onset time: rats; for Onset time: continuous tail vein infusion at 2 times the MIR, emulsion
[8] = tested on: Sprague-Dawley rats; assay: animal or person; format: in vivo; conditions: Rattus norvegicus; LORR, up and down method, tail vein, rats; class symbols; read-out: ED50
Source text: Evaluating indicator: The end point of anesthesia: the disappearance of forepaw righting reflex (lorr) was used as the end point of anesthesia; General anesthesia effect: the disappearance of forepaw righting reflex in rats lasting for 30 seconds is taken as the index of general anesthesia effect; Anesthesia recovery index: the recovery of rat forepaw righting reflex was used as the index of anesthesia recovery.

[9] = tested on: Sprague-Dawley rats; assay: Pharmacological effect and adverse reactions under the equivalent dose (2ED50), Group D compounds; format: in vivo
Source text: Evaluation index: onset time: from the completion of drug injection to the disappearance of forepaw righting reflex in rats; Duration of anesthesia: the time from the disappearance of rat forepaw righting reflex to the recovery of rat forepaw righting reflex; Recovery time of anesthesia: the time from the […] to complete recovery;

[10] = Homo sapiens, read-out: EC50 (Corticosterone)
[11] = Homo sapiens, read-out: EC50 (Cortisol)
[12] = read-out: EC50 (Corticosterone)
[13] = continuous infusion 2 x MIR 1 hour, rats affected/rats
[14] = equivalent dose (2 × ED50), number of rats of n = 8
[15] = Homo sapiens, NCI-H295R, read-out: EC50 (Corticosterone)
[16] = Homo sapiens, NCI-H295R, read-out: EC50 (Cortisol)

SMILES | ED50 [5] | Approximate therapeutic index [5] | Minimal lethal dose [5] [mg/kg] | Corticosterone as an indicator to determine the presence of inhibition [6] | Cortisol as an indicator to determine the presence of inhibition [6] | EC50 [6, 12] [nM] | EC50 ([6]; read-out: EC50 (Cortisol)) [nM] | Recovery time after stopping infusion [7] [min] | Types and incidence of adverse reactions: Tremor [7, 13] | Onset time [7] [min] | other results
C[C@H](c1ccccc1)n1nccc1C(=O)OC1CCC1 [Compound A4] | – | – | – | – | – | – | – | – | – | – | ED50 ([1]; Rattus norvegicus): 1 to 2 mg/kg; Approximate therapeutic index [1]: >11; Minimal lethal dose [1]: >15 mg/kg; Onset time [2]: 0.52 ± 0.21 min; Righting reflex duration [2]: 1.39 ± 0.66 min; Types and incidence of adverse reactions [2]: Red urine(6/6),; also recorded: Euphoria(5/6), Hindlimb; also recorded: rigidity(1/6); Corticosterone as an indicator to determine the presence of inhibition [3]: 0; Cortisol as an indicator to determine the presence of inhibition [3]: 0; EC50 [3, 10]: > 1000 nM; EC50 [3, 11]: > 1000 nM; Recovery time after stopping infusion [4]: 14 to 16 min; Onset time [4]: 4 to 5 min; Types and incidence of adverse reactions [4]: Tremor(3/6), Tongue; also recorded: stretching(4/6)
CCOC(=O)c1nnn([C@H](C)c2ccccc2)c1Br [Compound B100] | D (D indicates that the measured ED50 is in the range of 2.00-10.00 mg/kg (excluding 2.00 mg/kg, including 10.00 mg/kg)) | >2 | >18 | 0 | 0 | > 1000 | > 1000 | 15 to 17 | Tremor(2/6), Tongue | 5 to 6 | Types and incidence of adverse reactions: Tongue stretching [7, 13]: stretching(3/6)
CCOC(OC)(OC)C(=O)c1ccnn1[C@H](C)c1ccccc1 [Compound D3] | – | – | – | – | – | – | – | – | – | – | ED50 [8]: 2 to 6 mg/kg; Righting reflex duration ([9]; 2ED50, tail vein, rats, n=8): 1.25 ± 0.27 min; Sedation duration ([9]; 2ED50, tail vein, rats, n=8): 6.26 ± 1.50 min; Onset time ([9]; 2ED50, tail vein, rats, n=8, unit min): <1 min; Adverse reaction: Convulsions [9, 14]: 0; Adverse reaction: Cough, broken-winded [9, 14]: 0; Adverse reaction: Euphoria [9, 14]: 0; Adverse reaction: Four limbs rigidity [9, 14]: 1; Adverse reaction: Red urine [9, 14]: 8; Adverse reaction: Slower breathing, Tetany convulsion [9, 14]: 0; Adverse reaction: Systemic stiffness, Convulsions, Opisthotonus [9, 14]: 0; Adverse reaction: Tongue stretching [9, 14]: 0; Adverse reaction: Tremor [9, 14]: 1
C[C@H](c1ccccc1)n1nncc1C(=O)OC(C)(C)C [Compound B12] | A (A indicates that the measured ED50 is in the range of 0.04-0.50 mg/kg (including 0.04 and 0.50 mg/kg)) | >16 | >5 | 0 | 0 | > 1000 | > 1000 | 13 to 15 | Tremor(3/6) | 5 to 6 | –
C=C=CC1(OC(=O)c2cnnn2[C@H](C)c2ccccc2)COC1 [Compound B3] | – | >32 | >6 | 0 | 0 | – | – | 15 to 16 | Tremor(4/6), Tongue | 3 to 4 | ED50 ([5]; Rattus norvegicus): 0.04 to 0.5 mg/kg; EC50 [6, 15]: > 1000 nM; EC50 [6, 16]: > 1000 nM; Types and incidence of adverse reactions: Tongue stretching [7, 13]: stretching(3/6)
COC1CC(OC(=O)c2c(F)cnn2C(C)c2ccccc2)C1 (stereo not shown) [Compound A76] | – | – | – | – | – | – | – | – | – | – | ED50 ([1]; LORR in rats, tail vein, brackets = 95% confidence limit): A (A indicates that the measured ED50 is in the range of 0.04-0.50 mg/kg (including 0.04 and 0.50 mg/kg)); Approximate therapeutic index [1]: >10; Minimal lethal dose [1]: >2 mg/kg; Onset time [2]: 0.36 ± 0.12 min; Righting reflex duration [2]: 2.29 ± 0.56 min; Sedation duration [2]: 9.08 ± 2.16; Types and incidence of adverse reactions [2]: Red urine(8/8),; also recorded: Tremor(2/8),; also recorded: Euphoria(1/8); Corticosterone as an indicator to determine the presence of inhibition [3]: 0; Cortisol as an indicator to determine the presence of inhibition [3]: 0; EC50 [3, 12]: > 1000 nM; EC50 ([3]; read-out: EC50 (Cortisol)): > 1000 nM; Recovery time after stopping infusion [4]: 14 to 16 min; Onset time [4]: 3 to 4 min; Types and incidence of adverse reactions [4]: Tremor(1/6), Tongue; also recorded: stretching(2/6)
C=C=CC1(OC(=O)c2cc(F)nn2[C@H](C)c2ccccc2)COC1 [Compound A52] | – | – | – | – | – | – | – | – | – | – | ED50 ([1]; Rattus norvegicus): 0.5 to 1 mg/kg; Approximate therapeutic index [1]: >16; Minimal lethal dose [1]: >11 mg/kg; Onset time [2]: 0.50 ± 0.08 min; Righting reflex duration [2]: 2.01 ± 1.00 min; Types and incidence of adverse reactions [2]: Red and urine(8/8), Euphoria(3/8), and broken-winded(1/8); Corticosterone as an indicator to determine the presence of inhibition [3]: 0; Cortisol as an indicator to determine the presence of inhibition [3]: 0; EC50 [3, 10]: > 1000 nM; EC50 [3, 11]: > 1000 nM; Recovery time after stopping infusion [4]: 13 to 18 min; Onset time [4]: 5 to 6 min; Types and incidence of adverse reactions [4]: Tongue stretching(4/6),; also recorded: Tremor(4/6)
C[C@H](c1ccccc1)n1nnc(Cl)c1C(=O)SC1CCC1 [Compound B80] | D (D indicates that the measured ED50 is in the range of 2.00-10.00 mg/kg (excluding 2.00 mg/kg, including 10.00 mg/kg)) | >3 | >16 | 0 | 0 | > 1000 | > 1000 | 12 to 16 | Tremor(5/6) | 3 to 5 | –
CCC(CC)OC(=O)C(=O)c1cncn1[C@H](C)c1ccccc1 [Compound D83] | – | – | – | – | – | – | – | – | – | – | ED50 [8]: > 6 mg/kg
C[C@H](c1ccccc1)n1nncc1C(=O)OC1(C)COC1 [Compound B14] | – | >5 | >7 | 0 | 0 | – | – | – | Tremor(3/6) | 5 to 6 | ED50 ([5]; Rattus norvegicus): 1 to 2 mg/kg; EC50 [6, 15]: > 1000 nM; EC50 [6, 16]: > 1000 nM
CC#CCOC(=O)C(=O)c1cncn1[C@H](C)c1ccccc1 [Compound D84] | – | – | – | – | – | – | – | – | – | – | ED50 [8]: 2 to 6 mg/kg
CC(=O)C1=C(OC(=O)c2c(F)nnn2[C@H](C)c2ccccc2)CCCC1 [Compound B47] | C (C indicates that the measured ED50 is in the range of 1.00-2.00 mg/kg (excluding 1.00 mg/kg, including 2.00 mg/kg)) | >9 | >13 | 0 | 0 | > 100 | > 100 | 7 to 15 | Tremor(4/6), | 3 to 4 | Types and incidence of adverse reactions: Forelimbrigidity [7, 13]: Forelimbrigidity(1/6)
C[C@H](c1ccccc1)n1nncc1C(=O)OC1CCC1 [Compound B6] | A (A indicates that the measured ED50 is in the range of 0.04-0.50 mg/kg (including 0.04 and 0.50 mg/kg)) | >71 | >10 | 0 | 0 | > 100 | > 100 | 14 to 16 | Tremor(2/6), Tongue | 4 to 6 | Types and incidence of adverse reactions: Tongue stretching [7, 13]: stretching(2/6)
CCOC(=O)c1c(Br)nnn1[C@H](C)c1ccccc1 [Compound B118] | C (C indicates that the measured ED50 is in the range of 1.00-2.00 mg/kg (excluding 1.00 mg/kg, including 2.00 mg/kg)) | >12 | >17 | 0 | 0 | > 1000 | > 1000 | 13 to 15 | Tremor(4/6), Tongue | 6 to 7 | Types and incidence of adverse reactions: Tongue stretching [7, 13]: stretching(4/6)
